Assay results: patent publication US20250161253A1, “NUTRITIONAL PRODUCT” (VITAFLO (INTERNATIONAL) LTD, priority 2012, published 2025)

Key:
SH-SY5Y cells [1] = assay: citrate synthase activity in SH-SY5Y cells (marker of mitochondrial enrichment); type: cell-based, human; conditions: 6 days; for effect on citrate synthase activity compared to control cells (in words): 50-300 μM
Description: Mitochondrial enrichment was estimated by evaluation of citrate synthase activity (corrected for total cellular protein content). This enzyme is localised at the mitochondria, comprises part of the TCA cycle and is commonly used as a marker of mitochondrial enrichment. A human neuroblastoma cell line (SH-SY5Y) was utilised throughout this study, except where stated. In brief, cells were exposed to a range (50-300 μM, dissolved in 0.5% DMSO) of either octanoic or decanoic acid concentrations. After 6 days, the cells were harvested and citrate synthase activity was determined. Activity was expressed as nmol/min/mg of cellular protein.

SH-SY5Y cells [2] = assay: Complex I activity in SH-SY5Y cells; type: cell-based, human; conditions: 250 μM, 6 days
Description: In order to gain further independent insight into mitochondrial function, the activity of the respiratory chain enzyme, Complex I, was also evaluated. In a second experiment, cells were exposed to decanoic acid (250 μM, dissolved in 0.5% DMSO) for 6 days. The cells were subsequently harvested, and the activity of Complex I was determined. Each experiment was repeated 5 times, and the activity was expressed as nmol/min/mg of cellular protein.

SH-SY5Y cells [3] = assay: electron microscopy analysis of mitochondrial density and morphology in SH-SY5Y cells; type: cell-based, human; conditions: 250 μM, p<0.002
Description: Additionally, SH-SY5Y cells were prepared for electron microscopy (EM) analysis to assess mitochondrial density and morphology following treatment with decanoic acid.

[4] = test system: primary human fibroblasts; assay: citrate synthase activity in primary human fibroblasts; type: cell-based; conditions: 250 μM, 6 days
Description: Finally, the effect of decanoic acid was validated in an independent cell line. Primary cultures of human fibroblasts were exposed to decanoic acid at a concentration of 250 μM for 6 days. Following the incubation, citrate synthase activity was again assessed.

Compound	increase in citrate synthase activity compared to control cells (SH-SY5Y cells [1]; 250 μM, maximum, p<0.001) [%]	citrate synthase activity (SH-SY5Y cells [1]; 250 μM, n = 8, control 105 ± 5) [nmol/min/mg cell protein]	effect on citrate synthase activity compared to control cells (in words) (SH-SY5Y cells [1])	Complex I activity with respect to control (SH-SY5Y cells [2]; p<0.002)	Complex I activity normalised against citrate synthase activity (SH-SY5Y cells [2]; p<0.05)	number of mitochondria per cell (EM) (SH-SY5Y cells [3])	increase in citrate synthase activity [4] [%]
CCCCCCCCCC(=O)O [Decanoic Acid, decanoic acid]	30	137 ± 5	dose dependent	significant (p<0.002) increase	significant (p<0.05) increase	significant (p<0.002) increase	45
CCCCCCCC(=O)O [Octanoic acid, octanoic acid, reference compound]	–	–	no effect	–	–	–	–
